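These data come from cells grown in 96-well plates and exposed to compound for 48 hours at five concentrations. GI50 is the concentration that inhibits growth by half. TGI marks complete inhibition of growth.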
Experiments:
Test in all cases: NCI-60 cell line screen, 48 h
[1] = test system: EKVX NSCLC
[2] = test system: HCC-2998 colon
[3] = test system: HCT-116 colon
[4] = test system: HOP-92 NSCLC
[5] = test system: NCI-H522 lung
[6] = test system: RXF 393 renal
[7] = test system: SF-295 CNS
[8] = test system: SK-MEL-28 melanoma
[9] = test system: SW-620 colon
[10] = test system: SF-539 CNS

Compound	TGI [1]	TGI [2]	TGI [3]	TGI [4]	TGI [5]	TGI [6]	TGI [7]	TGI [8]	TGI [9]	TGI [10]	GI50 [1]	GI50 [2]	GI50 [3]	GI50 [4]	GI50 [5]	GI50 [7]	GI50 [10]	GI50 [9]	GI50 [6]	GI50 [8]
COc1cc(/C=C2/Oc3c(OC)cccc3C2=O)ccc1O	> 100 µM	> 100 µM	> 100 µM	> 100 µM	> 100 µM	> 100 µM	> 100 µM	> 100 µM	> 100 µM											
CCOC(=O)c1csc(NC(=O)C(C)N2CCOCC2)n1 (centres undefined)	> 100 µM	> 100 µM		> 100 µM		> 100 µM	> 100 µM	> 100 µM	> 100 µM	> 100 µM										
CCN(CC)CCNc1ccc([N+](=O)[O-])c2sc3cc(Cl)ccc3c(=O)c12	> 100 µM	> 100 µM	> 100 µM	30.3 µM	> 100 µM		> 100 µM		27.8 µM	5.25 µM	10.7 µM	11.1 µM	3.24 µM	2150 nM	9.01 µM	6.27 µM	2050 nM	2330 nM		
CC(C)=CCC/C(C)=C/C=C/C(C)=C/C1C[C@@]2(C(O)O1)[C@H](CCCO)/C(=C(/C)C=O)CC[C@]2(C)O (some centres undefined)	25.1 µM	29.4 µM	37.9 µM		36.7 µM	35.2 µM	27.7 µM	32.3 µM	27.8 µM	25 µM										
C[n+]1c(-c2ccc(/C=N/NC(=O)C(=O)N/N=C/c3ccc(-c4cn5ccccc5[n+]4C)cc3)cc2)cn2ccccc21	> 100 µM	> 100 µM		> 100 µM	> 100 µM	> 100 µM			> 100 µM	> 100 µM										
c1cncc([O][Ge]([O]c2cccnc2)([O]c2cccnc2)[O]c2cccnc2)c1	> 100 µM	> 100 µM	> 100 µM			> 100 µM	> 100 µM	> 100 µM	> 100 µM	> 100 µM	> 100 µM	> 100 µM	> 100 µM			> 100 µM	> 100000 nM	> 100000 nM	> 100000 nM	> 100000 nM
C/C(=N\NC(=S)N1CCOCC1)c1nc2ncccc2[nH]1	> 100 µM	> 100 µM	> 100 µM	68 µM	59.3 µM		69.6 µM	> 100 µM	> 100 µM	51.4 µM										
Cc1cc(Nc2ccc(Cl)cc2)nc(NCCCNc2ccnc3cc(Cl)ccc23)n1				2.53 µM		3.08 µM	3.04 µM	3.31 µM		3.13 µM				1010 nM		1.64 µM	1650 nM		1520 nM	1810 nM
O=C(O)/C=C/c1ccncc1	> 100 µM	> 100 µM	> 100 µM	> 100 µM	> 100 µM	> 100 µM	> 100 µM	> 100 µM	> 100 µM	> 100 µM										

Reference: PubChem BioAssay (NCI)
